Measured values reported in patent US8163728B2, “Pyrazoles” (Hoffmann-La Roche Inc., priority 2009, dated 2012).

The molecules below were run against T1, GABA A α5 (Homo sapiens, UniProt P18507+P31644) (assay: [3H]flumazenil competition binding, human GABA A α5β3γ2 receptors in HEK293 cell membranes). Conditions: human receptor α5β3γ2 transiently transfected in HEK293; 0.5 nM [3H]flumazenil; 1 hour at 4° C.; means of two determinations; read-out: hKi GABA A α5.
T1 construct: expressed in transfected cells; host or cells: HEK293 cells, transiently transfected; membranes prepared from cell pellets
Procedure, shortened: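 Competition with [3H]flumazenil for binding to membranes of HEK293 cells transiently expressing human α5β3γ2, in Krebs-tris buffer pH 7.5. Incubated to equilibrium 1 h at 4 °C, filtered and scintillation-counted; Ki values are means of two determinations.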

| Ki | SMILES |
| --- | --- |
| 3.9 nM | Cc1onc(-c2ccc(F)cc2)c1CNc1cc(C(=O)NC2CCOCC2)[nH]n1 [Example 156, 5-{[3-(4-Fluoro-phenyl)-5-methyl-isoxazol-4-ylmethyl]-amino}-2H-pyrazole-3-carboxylic acid (tetrahydro-pyran-4-yl)-amide] |
| 51 nM | Cc1onc(-c2ccc(F)cc2)c1CNc1cc(C(=O)NC(C)CO)[nH]n1 (stereo not shown) [Example 157, 5-{[3-(4-Fluoro-phenyl)-5-methyl-isoxazol-4-ylmethyl]-amino}-2H-pyrazole-3-carboxylic acid (2-hydroxy-1-methyl-ethyl)-amide] |
| 22 nM | Cc1onc(-c2ccc(F)cc2)c1CNc1cc(C(=O)N2CC3(COC3)C2)[nH]n1 [Example 158, (5-{[3-(4-Fluoro-phenyl)-5-methyl-isoxazol-4-ylmethyl]-amino}-2H-pyrazol-3-yl)-(2-oxa-6-aza-spiro[3.3]hept-6-yl)-methanone] |
| 39.9 nM | Cc1onc(-c2ccccn2)c1CNc1cc(C(=O)NC(C)C)n(C)n1 [Example 159, N-isopropyl-1-methyl-3-((5-methyl-3-(pyridin-2-yl)isoxazol-4-yl)methylamino)-1H-pyrazole-5-carboxamide] |
| 25.4 nM | Cc1onc(-c2ccccn2)c1CNc1cc(C(=O)NC2CCOCC2)n(C)n1 [Example 160, 2-Methyl-5-[(5-methyl-3-pyridin-2-yl-isoxazol-4-ylmethyl)-amino]-2H-pyrazole-3-carboxylic acid (tetrahydro-pyran-4-yl)-amide] |
| 19.4 nM | Cc1onc(-c2ccccn2)c1CNc1cc(C(=O)NN2CCOCC2)n(C)n1 [Example 161, 1-Methyl-3-((5-methyl-3-(pyridin-2-yl)isoxazol-4-yl)methylamino)-N-morpholino-1H-pyrazole-5-carboxamide] |
| 30.3 nM | Cc1onc(-c2ccccn2)c1CNc1cc(C(=O)NC2(C)COC2)n(C)n1 [Example 162, 1-Methyl-3-((5-methyl-3-(pyridin-2-yl)isoxazol-4-yl)methylamino)-N-(3-methyloxetan-3-yl)-1H-pyrazole-5-carboxamide] |
| 99.5 nM | Cc1onc(-c2ccc(F)cn2)c1CNc1cc(C(=O)NC(C)C)n(C)n1 [Example 163, 3-((3-(5-Fluoropyridin-2-yl)-5-methylisoxazol-4-yl)methylamino)-N-isopropyl-1-methyl-1H-pyrazole-5-carboxamide] |
| 11.9 nM | Cc1onc(-c2ccc(F)cn2)c1CNc1cc(C(=O)NC2CCOCC2)n(C)n1 [Example 164, 3-((3-(5-Fluoropyridin-2-yl)-5-methylisoxazol-4-yl)methylamino)-1-methyl-N-(tetrahydro-2H-pyran-4-yl)-1H-pyrazole-5-carboxamide] |
| 41.1 nM | Cc1onc(-c2ccc(F)cn2)c1CNc1cc(C(=O)NC2CC2)n(C)n1 [Example 165, N-Cyclopropyl-3-((3-(5-fluoropyridin-2-yl)-5-methylisoxazol-4-yl)methylamino)-1-methyl-1H-pyrazole-5-carboxamide] |
| 55.6 nM | Cc1onc(-c2ccc(F)cn2)c1CNc1cc(C(=O)NCC2CC2)n(C)n1 [Example 166, N-(Cyclopropylmethyl)-3-((3-(5-fluoropyridin-2-yl)-5-methylisoxazol-4-yl)methylamino)-1-methyl-1H-pyrazole-5-carboxamide] |
| 16.2 nM | Cc1onc(-c2ccc(F)cn2)c1CNc1cc(C(=O)NC2(C)COC2)n(C)n1 [Example 167, 3-((3-(5-Fluoropyridin-2-yl)-5-methylisoxazol-4-yl)methylamino)-1-methyl-N-(3-methyloxetan-3-yl)-1H-pyrazole-5-carboxamide] |
| 77.7 nM | Cc1onc(-c2ccc(F)cn2)c1CNc1cc(C(=O)N2CC3(COC3)C2)n(C)n1 [Example 168, (3-((3-(5-Fluoropyridin-2-yl)-5-methylisoxazol-4-yl)methylamino)-1-methyl-1H-pyrazol-5-yl)(2-oxa-6-azaspiro[3.3]heptan-6-yl)methanone] |
